Experimental data as given in patent US20240218385A1, “NEGATIVE-STRAND RNA VIRAL VECTOR AND PLANT GENOME EDITING METHOD WITHOUT TRANSFORMATION” (ZHEJIANG UNIVERSITY, priority 2021, published 2024).

Legend:
Assay type in all cases: cell-based
[1] = test system: PDS gene crPDS1 target site; assay: Mutation genotypes at the crPDS1 target in regenerated N. benthamiana plants after antiviral treatment (HTS); conditions: for proportion of M0 plants with mutations at the target site: ribavirin 40 mg/L, favipiravir 40 mg/L, remdesivir 1.2 mg/L
Source text: Plant regeneration through culturing the leaf tissues infected with the TSWV vectors are usually ineffective in eliminating the virus. The embodiment investigated the effect of antiviral treatment during plant regeneration on virus clearance using leaf tissues infected with the TSWV-Cas12a-crRNA vector targeting the N. benthamiana crPDS1 site. […] After 35 days of culturing, explants together with induced callus were transferred to an induction medium without antiviral agents until day 55, and then the regenerated seedlings were transferred to a rooting medium. Three independent biological replicates were included in each group, and 30 plants were randomly selected in each biological replicate of each group for subsequent analysis. Total RNA was extracted from M0 regenerated seedlings, and RT-PCR was conducted using the TSWV N specific primers N/F ([…]; SEQ ID NO: 131) and N/R ([…]; SEQ ID NO: 132) to examine the virus clearance rate. The primers Nb/actin/F ([…]; SEQ ID NO: 133) and Nb/actin/R ([…]; SEQ ID NO: 134) for amplification of the NbActin cDNA served as an internal control. […] In contrast, the mock treatment had only 4.4% of virus-free regenerated plants.
To further evaluate the effect of drug treatment on the efficiency of gene editing in the regenerated plants, DNA sequences containing the target loci were PCR amplified using specific primers (SEQ ID NO: 70 and 71), and the resulting amplicons were high-throughput sequenced. The mutation type of each plant was analyzed, and the editing efficiency of each group was calculated. We used the following definitions to call the putative genotype: wild-type (WT) with editing efficiency (indels %) of 0-10.0%; chimeric (Chi) with 10%<indels %≤35.0%; heterozygous (He) with 35.0%<indels %≤80.0%, i.e., one allele is edited at the target site but the other allele is wild-type; homozygous (Ho) with indels % between 80.0% and 100.0% if both alleles have the same type of editing, and biallelic (Bi) if two alleles produced two different types of editing.

TSWV [2] = assay: TSWV clearance from regenerated N. benthamiana plants by antiviral treatment during tissue culture (RT-PCR with N-specific primers); conditions: 40 mg/L in medium; explants infected with TSWV-Cas12a-crRNA targeting crPDS1
TSWV [3] = assay: TSWV clearance from regenerated tobacco plants by antiviral treatment
Source text: (§1) This embodiment further investigates the impact of antiviral drug treatment on virus clearance and mutant plant recovery using tobacco leaf tissues infected with the TSWV vectors for tissue culture and regeneration. We used the recombinant TSWV-Cas12a-crRNA vector described in Example 24 as an example, which targets the crPDS1 target sites of both PDS genes in tobacco. The systemic leaves infected with this virus vector were used as explants for tissue culture and plant regeneration, following the same experimental protocol as described in Example 24.
(§2) The distribution of mutant genotypes in the regenerated plants from each drug treatment group was further analyzed.

[4] = test system: PDS genes crPDS1 target sites; assay: Target mutations in regenerated tobacco plants after antiviral treatment (HTS)
Source text: as §1, §2

`NC(=O)c1nc(F)c[nH]c1=O` [favipiravir] was tested, and the “total editing efficiency compared to the mock group” value ([1]; M0 plants) was “lower than that of the mock group”, the “proportion of Ho/Bi types compared to the mock group” value ([1]; M0 plants, PDSa and PDSb) was “significantly higher than that of the mock group” and the “proportion of M0 plants with mutations at the target site” value ([1]; PDSa and PDSb) was “lowest mutation rates”.
In the case of `NC(=O)c1ncn([C@@H]2O[C@H](CO)[C@@H](O)[C@H]2O)n1` [ribavirin], the “TSWV clearance rate (regenerated plants free of virus)” value (TSWV [2]) is reported as 100%, the “plants with tetra-allelic mutations at the crPDS1 target site” value ([1]; 40 mg/L ribavirin in medium) is reported as 28.9% and the “proportion of Chi types compared to the mock group” value ([1]; M0 plants, PDSa and PDSb) is reported as “decreased”. For the same molecule, the “proportion of Ho/Bi types compared to the mock group” value ([1]; M0 plants, PDSa and PDSb) was “increased in both homoeologs”, the “proportion of M0 plants with mutations at the target site” value ([1]; PDSa and PDSb) was “highest proportion of plants with mutations” and the “presence of viral vectors in the regenerated plants” value (TSWV [3]) was “effectively cleared the virus from all of the regenerated plants”. The “proportion of mutation types in regenerated plants” value [4] was “increased the proportion of various mutation types” and the “percentage of regenerated plants carrying target mutations” value ([4]; HTS) was “significantly higher than that in the control treatment and other drug treatment groups”.
